Experimental data as given in patent US20120148647A1, “Photoresponsive Sunscreen Composition” (Blueshift Pharma GmbH, priority 2009, published 2012).
Where two headings read alike, the source gives them in different places.

Legend:
[1] = UV absorbance spectra in protonated and deprotonated form (different pH, or before and after HCl); assay type: physicochemical; conditions: FIGS. 1 to 4
From the text: Methods to determine if a given sunscreen agent measurably changes its absorbance of UV radiation upon protonation or deprotonation will be readily available to the skilled person, but include a method summarised by the following steps. First, identify a suitable solvent for said sunscreen agent. Such a solvent may be hydrophilic (eg water or glycerine) organic/protic (eg ethanol, isopropanol or octanol), organic/polar aprotic (eg DMSO, acetonitrile or dichloromethane) or organic/unipolar (eg hexane, hexadecane or diethylether). Second, record the UV-Visible (200 nm-800 nm) absorbance spectra of a solution of the sunscreen agent using a suitable photospectrometer (such as a Beckmann DU-640 Spectrometer as described in the examples herein). Third, take an aliquot of the sunscreen UV filter solution and add a strong acid (eg trifluoroacetic acid, or hydrochloric acid, or perchloric acid) and record its UV-Visible absorbance spectra. Neutralize with a base (see next step) to check for reversibility and record the UV-Visible absorbance spectra again. Fourth, take another aliquot of the sunscreen UV filter solution and add a strong base (eg NaOH, KOH, Triethylamine, Tris(hydroxymethyl)aminomethane (TRIS)) and record its UV-Visible absorbance spectra. Neutralize with an acid (see previous step) to check for reversibility and record the resulting UV-Visible absorbance spectra. Fifth, repeat the above steps with (a) more than one acid, (b) more than one base and (c) more than one solvent to exclude artifacts from specific UV-filter-ion interactions, or specific UV-filter-solvent interactions. Conclusion: measureable changes in UV absorbance that are observed in one or more of such repeat experiments for a give sunscreen agent identify that such sunscreen agent is a suitable sunscreen agent for use in the context of the present invention.
The pH was adjusted with NaOH/HCl in aqueous solution.

[2] = Predicted SPF calculated from absorption spectra; assay type: physicochemical
From the text: Predicted SPFs can be accurately determined from absorption spectra using standardized calculations based on the erythemal action spectrum, and such predicted SPFs correlate very well with in vivo determined SPFs. Corresponding algorithms for calculating SPF values are known in the art and corresponding computer programs are available; see, for example, http://www.sunscreensimulator.basf.com/Sunscreen_Simulator. Using the absorption spectrum shown in FIG. 2, the predicted SPF of a composition containing the deprotonated form of Padimate-O is approximately 10-fold higher than that of a composition containing the protonated form. With Benzophenone-4 (FIG. 1), the protonated form provides a composition having approximately 3 times the SPF as a composition containing the deprotonated form.

[3] = excited state after light absorption; cited from earlier work
[4] = cited from earlier work

Structure (SMILES): CCCCCCOC(=O)c1ccccc1C(=O)c1ccc(N(CC)CC)cc1O [2-(4-diethylamino-2-hydroxybenzoyl)-benzoic acid hexylester]
- effect of protonation state on UV absorption [1]: largely inactive in its protonated form

Structure (SMILES): COc1cc(O)c(C(=O)c2ccccc2)cc1S(=O)(=O)O [Benzophenone-4]
- SPF of composition with protonated form relative to deprotonated form ([2]; from absorption spectra of FIG. 1 (ethanol/water, pH 5 to 12)): approximately 3 times
- effect of protonation state on UV absorption [1]: protonated state being the from that absorbs more UVB radiation

Structure (SMILES): Oc1cccc2ccccc12 [Example 1-naphthol, 1-naphthol]
- pKa in the excited state [3]: 0.4

Structure (SMILES): Nc1ccc(C(=O)O)cc1 [PABA, p-aminobenzoic acid]
- effect of protonation state on UV absorption [1]: absorbs less UV radiation

Structure (SMILES): CCCCC(CC)COC(=O)c1ccc(N(C)C)cc1 (stereo not drawn) [Padimate-O, Ethylhexyl Dimethyl PABA]
- predicted SPF of composition with deprotonated form relative to protonated form ([2]; from absorption spectrum of FIG. 2 (acetonitrile, before/after equimolar HCl)): approximately 10 fold
- effect of protonation state on UV absorption [1]: shifts the absorption maximum of padimate-O from the UVB region to UVC

Structure (SMILES): COc1ccc(C(=O)c2ccccc2)c(O)c1 [oxybenzone]
- oxybenzone degraded ([4]; irradiation of oxybenzone and titanium dioxide, after 20 min of UV exposure): about 70%
- oxybenzone degraded ([4]; solution containing oxybenzone alone, after 260 min): 50%
